# How the values were obtained:
# A375 = assay: MTS conversion assay, melanoma cell proliferation; type: cell-based, human; details: 24 h; increasing doses up to 10 μM
# Protocol: Cell proliferation was measured by a MTS conversion assay using the CellTiter 96® Aqueous Non-Radioactive Cell Proliferation kit (Promega, Madison Wis.) according to the manufacturer instructions. Cells were seeded in 96-well plates (5×10^4 cells/well) and treated with different reagents for the indicated times and incubated at 37° C. with MTS reagent. The optical density of each sample at 490 nm was determined with a Multiskan FC plate reader (Thermo Fisher Scientific, Waltham, Mass. USA).
# A375 cells = assay: ROS production (CM-H2DCFDA, flow cytometry); type: cell-based, human; details: 5 mM NAC with 2 μM b-AP15
# Protocol: ROS levels were measured using the redox-sensitive dye CM-H2DCFDA (Thermo Fischer Scientific). After treatment, cells were stained with 10 μM CM-H2DCFDA in PBS for 30 min at 37° C. Cells were washed with PBS and resuspended in PBS 5 mM EDTA/1% BSA. ROS production was analysed using a MACSQuant® Analyzer 10 cytometer (Miltenyi Biotech).
# melanoma cell cultures = assay: Cytotoxicity of b-AP15 in presence of NAC or pan-caspase inhibitor; type: cell-based, human; details: co-incubation with b-AP15
# UCHL5 = molecular target: T1, UCHL5 (Homo sapiens, UniProt Q9Y5K5); assay: DUB trap assay (HA-Ub-VS probe, anti-UCHL5 immunoblot); type: cell-based
# T1 construct: 20 μg of protein extracts were incubated for 25 min at 37° C. with 2 μM HA-Ub-VS; endogenous in cells; host or cells: A375 melanoma cells; cell lysates
# T1 sequence (Q9Y5K5 whole entry): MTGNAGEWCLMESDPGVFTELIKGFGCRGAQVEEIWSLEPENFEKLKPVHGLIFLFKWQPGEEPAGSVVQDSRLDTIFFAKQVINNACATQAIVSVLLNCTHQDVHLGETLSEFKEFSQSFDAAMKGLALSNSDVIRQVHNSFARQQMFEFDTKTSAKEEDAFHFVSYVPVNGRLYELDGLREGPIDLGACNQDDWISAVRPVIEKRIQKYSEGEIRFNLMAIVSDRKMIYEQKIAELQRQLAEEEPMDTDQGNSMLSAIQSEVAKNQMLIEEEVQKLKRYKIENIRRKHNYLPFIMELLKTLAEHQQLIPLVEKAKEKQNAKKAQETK
# Protocol: (§1) Cells were harvested, washed with PBS and pellets were dried then freezed (−80° C.) and subsequently lysed in ice-cold buffer containing 50 mM Tris (pH 7.4), 5 mM MgCl2, 250 mM sucrose, 1 mM DTT, 2 mM ATP, and 1 mM PMSF and mild sonication. Lysates were cleared by centrifugation, and 20 μg of protein extracts were incubated for 25 min at 37° C. with 2 μM HA-Ub-VS (Boston Biochem, Cambridge, Mass.). After boiling in reducing sample buffer, labelled cell lysates were subjected to immunoblot analysis as described above using the indicated antibodies.
# A375 and Me1501 cells = assay: Cytotoxicity, cytotox green reagent (IncuCyte); type: cell-based, human; details: 72 h; compared with b-AP15
# Protocol: FIG. 8. USP14 inhibition induces growth inhibition and cytotoxicity on melanoma cell lines. (A) Growth curve of A375 treated with 2 μM b-AP15, 2 μM VLX1570 or […] bortezomib (BTZ). Data were acquired in triplicate during 3 days using an IncuCyte Zoom. (B) and (C) Cytotoxic effects of USP14 inhibition on melanoma cells. A375 and Me1501 cells were treated with the indicated doses of b-AP15 or VLX1570, and stained with cytotox green reagent (100 nM). Cytotoxicity was monitored in triplicate for 72 h with an IncuCyte imaging system.
# USP14 = molecular target: T2, USP14 (Homo sapiens, UniProt P54578); assay: DUB trap assay (HA-Ub-VS probe, anti-USP14 immunoblot); type: cell-based; details: A375 melanoma cells
# T2 construct: endogenous in cells; host or cells: A375 (also 1205Lu, 501Mel, SKMel28, 451Lu) melanoma cells; cell lysates
# T2 sequence (P54578 whole entry): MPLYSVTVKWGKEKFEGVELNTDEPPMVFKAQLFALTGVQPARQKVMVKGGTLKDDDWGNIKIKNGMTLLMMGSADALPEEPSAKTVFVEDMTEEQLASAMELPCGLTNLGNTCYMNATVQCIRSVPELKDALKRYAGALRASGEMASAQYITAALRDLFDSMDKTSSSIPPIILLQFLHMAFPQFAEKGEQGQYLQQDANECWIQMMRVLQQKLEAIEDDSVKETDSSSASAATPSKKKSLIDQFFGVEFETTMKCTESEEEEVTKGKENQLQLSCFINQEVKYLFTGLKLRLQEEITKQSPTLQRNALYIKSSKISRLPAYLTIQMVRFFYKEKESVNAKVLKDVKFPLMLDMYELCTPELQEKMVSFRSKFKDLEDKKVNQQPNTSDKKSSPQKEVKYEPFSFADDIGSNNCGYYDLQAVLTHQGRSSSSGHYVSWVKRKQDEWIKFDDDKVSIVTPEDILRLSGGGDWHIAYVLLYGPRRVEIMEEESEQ
# Protocol: as §1
# [1] = Annexin-V-FITC/7-AAD flow cytometry, cell viability; type: cell-based; details: human, A375 cells; solvent 87%
# Protocol: Cell death was evaluated by flow cytometry following staining with Annexin-V-FITC and 7-AAD (eBiosciences) as previously described 24.
structure (smiles),measurement,setting,value
N#Cc1nc2c(nc1C#N)-c1ccc(Cl)cc1C2=O [HBX41108],cell proliferation of A375 cells (MTS),A375,drastically decreased cell proliferation
"CC(=O)N[C@@H](CS)C(=O)O [NAC, N-acetyl-L-cysteine]",effect on b-AP15-triggered burst of ROS,A375 cells,inhibited
same,effect on cytotoxicity of b-AP15,melanoma cell cultures,blocked
CC(C)[C@H](NC(=O)c1ccc2ccccc2n1)C(=O)N[C@@H](CC(=O)O)C(=O)COc1c(F)cccc1F [QVD-OPh],effect on cytotoxicity of b-AP15,melanoma cell cultures,did not prevent the cytotoxic action of b-AP15
C=CC(=O)N1CC/C(=C\c2ccc(F)c([N+](=O)[O-])c2)C(=O)/C(=C/c2ccc(F)c([N+](=O)[O-])c2)C1 [VLX1570],UCHL5 activity (UCHL5-Ub-HA) in A375 cells,UCHL5,not UCHL5
same,melanoma cell death,A375 and Me1501 cells,induced to similar levels
same,USP14 activity (USP14-Ub-HA) in A375 cells,USP14,blocked USP14
CCC[C@H](NC(=O)/C(C#N)=C/c1cccc(Br)n1)c1ccccc1 [WP1130],cell proliferation of A375 cells (MTS),A375,drastically decreased cell proliferation
CN[C@@H]1C[C@H]2O[C@@](C)([C@@H]1OC)n1c3ccccc3c3c4c(c5c6ccccc6n2c5c31)C(=O)NC4 [staurosporine],viability,[1],56%

# — patent publication US20210186982A1, “METHODS AND COMPOSITIONS FOR TREATING MELANOMA” (UNIVERSITE NICE SOPHIA ANTIPOLIS, priority 2017, published 2021)
